In patent US4146720A, “N-Aminoethyl-substituted-3-nitronaphthalimides” (priority 1977, dated 1979):

Key:
[1] = Comparative toxicity study (LD0, LD50) and therapeutic index; details: mouse, in vivo
Excerpt: (§1) In the study of the cytostatic action, 6-mercaptopurine was taken as the comparative anti-neoplastic drug.

mouse = test: as above; details: for LD0 (zero lethal dose or maximal permissible dose): LD0 expressed in mg/mouse; for LD50: LD50 expressed in mg/mouse
Excerpt: as §1

Swiss I.C.R. albino mice = test: Raticide/muricide action, drugs mixed with mice food for 7 days, Warfarin as comparative substance; type: in vivo, mouse (Swiss I.C.R. albino); details: for Dose to be taken in seven days: mixed with usual mice food at 1%, 0.5% and 0.1%, 7 days, oral; for Raticide and muricide action compared with Warfarin / Toxicity compared with Warfarin: in words
Description: The four drugs were given to Swiss I.C.R. albino mice during 7 days. The administration was done by mixing the drugs with the usual mice food at concentrations of 1%, 0.5% and 0.1%. Two cribs were put in each cage: one with the usual mice food and the other containing food to which our drugs were added at the above mentioned concentrations. The food of both cribs was weighed daily in order to see if the animals could distinguish it. Warfarin (3-(α-acetonylbenzyl)-4-hydroxycoumarin) was used as the comparative substance.

He-La cells and KB cells = test: Cytostatic action on He-La cells and on KB cells, 6-mercaptopurine as comparative drug (Table 1); type: cell-based, human; design: unit not given beside the values; details: calculated using 6-mercaptopurine as the comparative drug (6-mercaptopurine = 1)
Excerpt: as §1

HeLa cells = test: Cytotoxic activity on HeLa cells, comparison with corresponding 4-nitronaphthalimides; type: cell-based, human; details: relative; ID50 of 6-mercaptopurine is assigned the value "1"; 37° C., 72 hours; Lowry protein
Description: A series of tests has been carried out comparing the compounds of our invention with the corresponding 4-nitronaphthalimides, with respect to their cytotoxic activity on HeLa cells. The cytotoxic activity test was carried out in accordance with the procedure set forth in "R. I. Heral. Cancer Chemotherapy Report part III, Vol. III, No. 2".
HeLa cells are human cancer cells commonly used for investigating the cytotoxic activity of compounds. These HeLa cells are cultured by the single layer tissue culture technique on glass slides in the laboratories of the Spanish company, Laboratories Made, S.A., of Madrid, Spain, the assignee of this application.
In the tests, there was used an initial culture containing approximately 125000 HeLa cells per milliliter. The initial culture was dispersed with trypsin and was stirred to maintain the cells in suspension therein. Portions of equal volume of the suspension were placed in separate test tubes and to the test tubes were added the various compounds set forth below in various concentrations. There was employed as a standard for comparison, the compound 6-mercaptopurine, a known anti-neoplastic agent whose cytotoxic activity on HeLa cells is well known. As a control, there were also employed test tubes containing the suspension and to which no compound was added.
The contents of the test tubes were cultured at 37° C. for 72 hours. Then the contents of the various test tubes were examined by optical microscope to determine the approximate proportion of cells whose cellular growth was inhibited. Then, the protein content of each tube was determined by the Lowry method, as modified by Oyama and Eagle (Proc. Soc. Exptl. Biol. Med. 91, 305 (1956), and these values are compared with the corresponding values obtained in the control test tubes wherein no compound was added. Comparison of these measured protein values provides a further determination of the inhibition of cell growth caused by the test compounds. With the data obtained from the test tubes containing the same compound in various concentrations, a graph was prepared of concentration of compound versus inhibition of growth of HeLa cells. From this, there can be obtained the so-called ID50 value, that is, the dose of the compound that inhibits HeLa cellular growth by 50%. This is then compared with the results for the comparison compound 6-mercaptopurine. For purposes of comparison, the ID50 value of 6-mercaptopurine is assigned the value "1".

Compound | selectivity ratio [1] | LD0 (zero lethal dose or maximal permissible dose) (mouse) | LD50 (mouse) | Dose to be taken in seven days (Swiss I.C.R. albino mice) | ID50 (50% inhibitory dose) (He-La cells and KB cells) | ID50 (dose that inhibits HeLa cellular growth by 50%) (HeLa cells) | Raticide and muricide action compared with Warfarin (Swiss I.C.R. albino mice) | Toxicity compared with Warfarin (Swiss I.C.R. albino mice)
Sc1ncnc2nc[nH]c12 [6-mercaptopurine, reference compound] | 5 | 1 mg/mouse | 5 mg/mouse |  |  |  |  | 
O=C1c2cccc3cc([N+](=O)[O-])cc(c23)C(=O)N1CCN1CCCCC1 [Compound 1, N-[2-(N-piperidino)ethyl]-3-nitronaphthalimide] |  | 0.5 mg/mouse | 2 mg/mouse | 80 mg/kg | 2 | 2 |  | 
CCN(CC)CCN1C(=O)c2cccc3cc([N+](=O)[O-])cc(c23)C1=O [Compound 2, N-(2-diethylaminoethyl)-3-nitronaphthalimide] |  | 0.15 mg/mouse | 2 mg/mouse | 13 mg/kg | 3 | 3 | great superiority over Warfarin as raticide and muricide agents | more toxic
CN(C)CCN1C(=O)c2cccc3cc([N+](=O)[O-])cc(c23)C1=O [Compound 3, N-(2-dimethylaminoethyl)-3-nitronaphthalimide] | 2 | 0.2 mg/mouse | 0.30 mg/mouse | 6.6 mg/kg | 0.15 | 0.15 | great superiority over Warfarin as raticide and muricide agents | more toxic
O=C1c2cccc3cc([N+](=O)[O-])cc(c23)C(=O)N1CCN1CCCC1 [Compound 4, N-[2-(N-pyrrolidino)ethyl]-3-nitronaphthalimide] | 1.26 | 0.2 mg/mouse | 0.38 mg/mouse | 6.6 mg/kg | 0.3 | 0.30 | great superiority over Warfarin as raticide and muricide agents | more toxic
O=C1c2cccc3c([N+](=O)[O-])ccc(c23)C(=O)N1CCN1CCCCC1 [N-[2-(N-piperidino)ethyl]-4-nitronaphthalimide, reference compound] |  |  |  |  |  | 5 |  | 
O=C1c2cccc3c([N+](=O)[O-])ccc(c23)C(=O)N1CCN1CCCC1 [N-[2-(N-pyrrolidino)ethyl]-4-nitronaphthalimide, reference compound] |  |  |  |  |  | 4 |  | 
CCN(CC)CCN1C(=O)c2cccc3c([N+](=O)[O-])ccc(c23)C1=O [N-[2-diethylaminoethyl]-4-nitronaphthalimide, reference compound] |  |  |  |  |  | 5.5 |  | 
CN(C)CCN1C(=O)c2cccc3c([N+](=O)[O-])ccc(c23)C1=O [N-[2-dimethylaminoethyl]-4-nitronaphthalimide, reference compound] |  |  |  |  |  | 3 |  | 
CC(=O)CC(c1ccccc1)c1c(O)c2ccccc2oc1=O (stereo not drawn) [Warfarin, 3-(α-acetonylbenzyl)-4-hydroxycoumarin, reference compound] |  |  |  | 35 mg/kg |  |  |  | 
